Measured values as given in the CheMixHub ionic liquid set.

Test: xn = mol fraction of the nth substance listed

CCCCC[N+](CCCCC)(CCCCC)CCCCC.[Br-] + CCCCCCCCCCCCOS(=O)(=O)[O-].[Na+] + O
viscosity [mPa·s], 100 kPa
Details	x2 = 1.81e-06, x1 = 0.0001802	x2 = 3.62e-06, x1 = 0.0001802	x2 = 5.43e-06, x1 = 0.0001802	x2 = 7.23e-06, x1 = 0.0001802	x2 = 9.04e-06, x1 = 0.0001802	x2 = 1.085e-05, x1 = 0.0001802	x2 = 1.266e-05, x1 = 0.0001802	x2 = 1.447e-05, x1 = 0.0001802	x2 = 1.628e-05, x1 = 0.0001802	x2 = 1.808e-05, x1 = 0.0001802
293.15 K	1.024	1.026	1.027	1.028	1.028	1.029	1.029	1.029	1.03	1.03
298.15 K	0.914	0.916	0.917	0.917	0.919	0.92	0.921	0.921	0.922	0.922
303.15 K	0.8	0.801	0.802	0.803	0.803	0.803	0.803	0.803	0.804	0.805
308.15 K	0.723	0.723	0.724	0.724	0.724	0.724	0.725	0.725	0.726	0.726
313.15 K	0.658	0.659	0.66	0.66	0.661	0.661	0.661	0.661	0.662	0.662
318.15 K	0.604	0.605	0.605	0.605	0.606	0.606	0.606	0.606	0.606	0.606

CCCCCCCC[n+]1ccc2ccccc2c1.O=S(=O)([N-]S(=O)(=O)C(F)(F)F)C(F)(F)F + OCCc1ccccc1
101 kPa
Details	viscosity [mPa·s]
298.15 K, x2 = 0.5766	60.64
298.15 K, x2 = 0.8956	18.61
308.15 K, x2 = 0.695	25
318.15 K, x2 = 0.1985	71.5
318.15 K, x2 = 0.3748	45.28
318.15 K, x2 = 0.5766	23.86
328.15 K, x2 = 0.0851	58.53
328.15 K, x2 = 0.3748	30.17
328.15 K, x2 = 0.5766	16.54
328.15 K, x2 = 0.695	11.76
338.15 K, x2 = 0.0851	39.05
338.15 K, x2 = 0.3748	21.2
338.15 K, x2 = 0.695	8.67

CCCCCCCC[n+]1ccc2ccccc2c1.O=S(=O)([N-]S(=O)(=O)C(F)(F)F)C(F)(F)F + CCCCCCO
101 kPa
Details	viscosity [mPa·s]
318.15 K, x2 = 0.2857	48.99
338.15 K, x2 = 0.6854	6.58

O=C([O-])C(F)(F)F.O=S(=O)(O)n1cc[n+](S(=O)(=O)O)c1 + CC#N
101 kPa
Details	electrical conductivity [S/m]
278.15 K, x1 = 0.02551	1.83
283.15 K, x1 = 0.02551	1.78
288.15 K, x1 = 0.02551	1.62
293.15 K, x1 = 0.02551	1.59
298.15 K, x1 = 0.0052	0.305
298.15 K, x1 = 0.0104	0.52
298.15 K, x1 = 0.0155	0.949
298.15 K, x1 = 0.0205	1.15
298.15 K, x1 = 0.0255	1.54
298.15 K, x1 = 0.02551	1.54
298.15 K, x1 = 0.05	2.02
303.15 K, x1 = 0.02551	1.27
308.15 K, x1 = 0.02551	1.25
313.15 K, x1 = 0.02551	1.25
318.15 K, x1 = 0.02551	1.25
323.15 K, x1 = 0.02551	0.803
328.15 K, x1 = 0.02551	0.486
333.15 K, x1 = 0.02551	0.401

CC[N+](C)(CC)CCOC.F[B-](F)(F)F + CC[N+](C)(CC)CCOC.O=S(=O)([N-]S(=O)(=O)C(F)(F)F)C(F)(F)F
100 kPa
Details	electrical conductivity [S/m]
293.15 K, x2 = 0.1	0.112
298.15 K, x2 = 0.3	0.19
298.15 K, x2 = 0.7	0.227
298.15 K, x2 = 0.9	0.267
303.15 K, x2 = 0.9	0.341
308.15 K, x2 = 0.3	0.325
308.15 K, x2 = 0.5	0.356
313.15 K, x2 = 0.2	0.388
313.15 K, x2 = 0.3	0.409
313.15 K, x2 = 0.8	0.495
318.15 K, x2 = 0.4	0.525
318.15 K, x2 = 0.7	0.573
323.15 K, x2 = 0.2	0.595
323.15 K, x2 = 0.3	0.612
328.15 K, x2 = 0.2	0.722
328.15 K, x2 = 0.6	0.806
333.15 K, x2 = 0.1	0.892
333.15 K, x2 = 0.5	0.911
333.15 K, x2 = 0.7	0.948
338.15 K, x2 = 0.7	1.1
343.15 K, x2 = 0.2	1.19
343.15 K, x2 = 0.3	1.19
343.15 K, x2 = 0.8	1.25
